# Data from patent EP0428000A1, “Fluorogenic substrates for the detection of proteolytic enzyme activity” (priority 1989, dated 1991).
# pIC50: −log10 of the molar value. Like-named read-outs stand apart in the source and are kept apart here. Numbered stars: 1 amine (or outer) side, 2 acyl side, 3 side chain; on linkers, the order of the positions; unused ones are H or OH. Square brackets hold non-standard residues; d marks the D form. Peptide text beside a SMILES is read from it. * marks the point of attachment. X3 = Nc1c(S(=O)(=O)O)cc2c3c(cc(S(=O)(=O)O)cc13)C(=O)N(CCCCCN*)C2=O; Dabcyl = CN(C)c1ccc(N=Nc2ccc(C(=O)*)cc2)cc1; X2 = CN(C)c1ccc(N=Nc2ccc(S(=O)(=O)*)cc2)cc1; X1 = CN(C)c1ccc(/N=N/c2ccc(C(=O)*)cc2)cc1; EDANS = O=S(=O)(O)c1cccc2c(NCCN*)cccc12; Sta = CC(C)C[C@H](N)[C@@H](O)CC(=O)O; NMeGABA = CN(CCCC(=O)[*:2])[*:1]; Isovaleryl = CC(C)CC(=O)*; GABA = NCCCC(=O)O
# Key:
# HIV protease [1] = molecular target: T1, HIV protease (Human immunodeficiency virus type 1 group M subtype B, UniProt P04585); experiment: HIV protease activity towards fluorogenic substrates; assay type: biochemical, human immunodeficiency virus-1 (HIV-1); design: The 11 kd protease enzyme, which is encoded by the human immunodeficiency virus-1 (HIV-1)
# Description: (§1) Rate measurements of the change of the fluorescence intensity over time were also performed for reaction mixtures containing a protease enzyme and a fluorogenic substrate of the present invention.
# [2] = assay buffer used
# AMV protease [3] = assay type: biochemical, avian myeloblastosis virus (AMV)
# Description: as §1
# HIV protease [4] = molecular target: T1, HIV protease; experiment: Fluorogenic assay for inhibition of HIV protease (Substrate I); conditions: Cornish-Bowden plot, parallel lines; pH 4.7, 30°C
# Description: Typically, the assay reaction is performed using buffered solutions, and the reaction is allowed to proceed to virtual completion. The hydrolysis of the fluorogenic substrate by the protease enzyme is monitored by steady state fluorescence using a spectrofluorometer. Fluorescence intensity measurements can be acquired continuously and recorded directly by an interfaced microcomputer. The rate of fluorescent substrate hydrolysis can then be computed from a linear regression analysis. In this assay, the rate of hydrolysis of the fluorogenic substrate is directly proportional to the concentration of the protease. By omitting the protease inhibitor compound from the reaction mixture, the rate of change in fluorescent intensity due to the enzyme's activity can be determined. […]
# The assay reaction was carried out in a fluorescence microcell (3 mm), for which a total sample volume of 120 microliters is adequate in most fluorometers. […] Prewarmed substrate solution (20 µL at 30°C) was then added to the microcell, and the fluorescence intensity of the reaction mixture was recorded as a function of time. […] The rate of change of the fluorescence intensity over the subsequent five to eight minutes was determined by linear regression. […] Therefore, the per cent inhibition was calculated as 100 x (1 - (rate in presence of inhibitor)/(rate in absence of inhibitor)).
# AMV protease [5] = molecular target: AMV protease (Avian myeloblastosis virus, UniProt P26315); experiment: Fluorogenic assay for inhibition of AMV protease (Substrate II); assay type: biochemical
# Description: as §1
# physchem = conditions: NaOAc buffer, pH 4.7, aqueous buffer
# HIV protease [6] = molecular target: T1, HIV protease; experiment: Fluorescence enhancement of substrate on hydrolysis by HIV protease; assay type: biochemical, human immunodeficiency virus-1 (HIV-1); design: The 11 kd protease enzyme, which is encoded by the human immunodeficiency virus-1 (HIV-1)
# Description: Analytical HPLC and the isolation of substrate fragments were performed in accordance with methods well known in the art on a Hewlett Packard 1090M system equipped with diode array absorbance and fluorescence detectors, using either a Brownlee 250 x 4.6 mm C8 silica column at pH values below 5, or a Hamilton 50 x 4.1 mm PRP3 polymer column over a pH range of 2-8. A water to acetonitrile gradient was used; either 0.1% trifluoroacetic acid (pH of about 2), 10 mM sodium acetate (pH 4.9), or 10 mM Tris-HCl (pH 8) was included to vary the pH.
# The detection system permitted the simultaneous acquisition of the chromatograms for fluorescence and several absorbance wavelengths, as well as the absorption spectra for all peaks. The fluorescence (excitation at 340 nm, emission at 490 nm) and 475 nm absorbance signals, which arise respectively from the EDANS and DABCYL groups, were used to monitor and quantitate the fragments produced by proteolysis of the substrate.
# The molar fluorescence enhancement of Substrate I was also estimated by HPLC analysis of HIV protease/Substrate reaction mixtures at times before the hydrolysis reaction was complete. […]
# [7] = pH 4.7, aqueous buffer
# Chain of AMV protease (Avian myeloblastosis virus, UniProt P26315) (P26315 whole entry): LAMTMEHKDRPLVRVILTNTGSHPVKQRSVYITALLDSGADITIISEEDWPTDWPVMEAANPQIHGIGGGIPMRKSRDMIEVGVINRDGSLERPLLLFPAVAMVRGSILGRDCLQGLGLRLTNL
smiles,measurement,setting,value
CC[C@H](C)[C@H](NC(=O)CCCNC(=O)c1ccc(/N=N/c2ccc(N(C)C)cc2)cc1)C(=O)N[C@@H](CCCNC(=N)N)C(=O)N[C@@H](CCC(N)=O)C(=O)N[C@@H](C)C(=O)N[C@@H](CC(N)=O)C(=O)N[C@@H](Cc1ccccc1)C(=O)N[C@@H](CC(C)C)C(=O)NCC(=O)N[C@@H](CC(C)C)C(=O)NCCNc1cccc2c(S(=O)(=O)O)cccc12 [Substrate V] ({X1-GABA}-IRQANFLGL-{EDANS}),cleavage by HIV protease (in words),HIV protease [1],not as efficiently as was Substrate I
CC[C@H](C)[C@H](NC(=O)[C@H](CCSC)NC(=O)[C@H](Cc1ccc(O)cc1)NC(=O)[C@H](CC(N)=O)NC(=O)[C@H](CCC(N)=O)NC(=O)[C@H](CO)NC(=O)CCCN(C)S(=O)(=O)c1ccc(N=Nc2ccc(N(C)C)cc2)cc1)C(=O)N[C@H](C(=O)N[C@@H](CCC(N)=O)C(=O)NCCNc1cccc2c(S(=O)(=O)O)cccc12)C(C)C [Substrate IV] (X2-[NMeGABA]SQNYMIVQ-{EDANS}),solubility (in words),[2],poor solubility
CC(C)[C@H](NC(=O)[C@H](CO)NC(=O)CCCNC(=O)c1ccc(/N=N/c2ccc(N(C)C)cc2)cc1)C(=O)N[C@H](C(=O)N[C@@H](Cc1ccc(O)cc1)C(=O)N1CCC[C@H]1C(=O)N[C@H](C(=O)N[C@H](C(=O)N[C@@H](CCC(N)=O)C(=O)NCCNc1cccc2c(S(=O)(=O)O)cccc12)C(C)C)C(C)C)C(C)C [Substrate II] ({X1-GABA}-SVVYPVVQ-{EDANS}),AMV protease activity against Substrate II relative to Substrate I,AMV protease [3],at least 50 fold
same,cleavage by AMV protease (in words),AMV protease [3],efficient substrate
CC(C)CC(=O)N[C@H](C(=O)N[C@H](C(=O)N[C@@H](CC(C)C)[C@@H](O)CC(=O)N[C@@H](C)C(=O)N[C@@H](CC(C)C)[C@@H](O)CC(=O)O)C(C)C)C(C)C [pepstatin] (Isovaleryl-VV[Sta]A[Sta]-OH),mode of inhibition of the protease,HIV protease [4],purely competitive
same,pIC50,AMV protease [5],~4.40
CC[C@H](C)[C@H](NC(=O)[C@@H]1CCCN1C(=O)[C@H](Cc1ccc(O)cc1)NC(=O)[C@H](CC(N)=O)NC(=O)[C@H](CCC(N)=O)NC(=O)[C@H](CO)NC(=O)CCCNC(=O)c1ccc(/N=N/c2ccc(N(C)C)cc2)cc1)C(=O)N[C@H](C(=O)N[C@@H](CCC(N)=O)C(=O)NCCNc1cccc2c(S(=O)(=O)O)cccc12)C(C)C [Substrate I] ({X1-GABA}-SQNYPIVQ-{EDANS}),cleavage by AMV protease (in words),AMV protease [3],not by AMV protease
same,solubility,physchem,~150 µM
same,cleavage by HIV protease (in words),HIV protease [1],cleaved quite efficiently
same,maximum velocity for the enzymatic reaction (Vmax),HIV protease [1]; HIV protease,47 nM/min
same,Km,HIV protease [1]; HIV protease; read-out: Michaelis-Menten kinetics constant (Km),103 µM
same,"rate of cleavage by HIV protease, Substrate I relative to Substrate II",HIV protease [1]; each substrate 3.4 µM,ten times faster
same,enhancement of the fluorescence quantum yield of the Pro-Ile-Val-Gln-EDANS fragment over the parent substrate,"HIV protease [6]; HPLC analysis, pH 4.9, acetonitrile-water",33 fold
same,fluorescence enhancement on cleavage,HIV protease [6]; under assay conditions,40 fold
CC[C@H](C)[C@H](NC(=O)[C@H](CCC(N)=O)NC(=O)[C@@H]1CCCN1C(=O)[C@H](Cc1ccccc1)NC(=O)[C@H](CC(N)=O)NC(=O)[C@H](Cc1ccccc1)NC(=O)[C@H](CO)NC(=O)[C@@H](NC(=O)CCCN(C)S(=O)(=O)c1ccc(N=Nc2ccc(N(C)C)cc2)cc1)C(C)C)C(=O)N[C@H](C(=O)N[C@@H](CC(C)C)C(=O)NCCNc1cccc2c(S(=O)(=O)O)cccc12)[C@@H](C)O [Substrate III] (X2-[NMeGABA]VSFNFPQITL-{EDANS}),solubility (in words),[2],poor solubility
CC[C@H](C)[C@H](NC(=O)[C@@H](NC(=O)[C@H](C)NC(=O)[C@@H](NC(=O)CCCNC(=O)c1ccc(/N=N/c2ccc(N(C)C)cc2)cc1)[C@@H](C)O)[C@@H](C)O)C(=O)N[C@@H](CCSC)C(=O)N[C@@H](CCSC)C(=O)N[C@@H](CCC(N)=O)C(=O)N[C@@H](CCCNC(=N)N)C(=O)NCC(=O)N[C@@H](CCC(=O)O)C(=O)NCCNc1cccc2c(S(=O)(=O)O)cccc12 [Substrate VII] ({X1-GABA}-TATIMMQRGE-{EDANS}),cleavage by HIV protease (in words),HIV protease [1],more efficient substrate
same,maximum velocity for the enzymatic reaction (Vmax),HIV protease [1]; HIV protease,1.8 nM/min
same,Km,HIV protease [1]; read-out: Michaelis-Menten kinetics constant (Km); HIV protease,5.9 µM
CC[C@H](C)[C@H](NC(=O)[C@@H]1CCCN1C(=O)[C@H](Cc1ccc(O)cc1)NC(=O)[C@H](CC(N)=O)NC(=O)[C@H](CCC(N)=O)NC(=O)[C@H](CO)NC(=O)CCCNC(=O)c1ccc(N=Nc2ccc(N(C)C)cc2)cc1)C(=O)N[C@H](C(=O)N[C@@H](CCC(N)=O)C(=O)NCCCCCN1C(=O)c2cc(S(=O)(=O)O)cc3c(N)c(S(=O)(=O)O)cc(c23)C1=O)C(C)C ({Dabcyl-GABA}-SQNYPIVQ-X3),solubility,[7],≥ 350 µM
CC[C@H](C)[C@H](NC(=O)[C@@H]1CCCN1C(=O)[C@H](Cc1ccccc1)NC(=O)[C@H](CC(N)=O)NC(=O)[C@H](CC(C)C)NC(=O)[C@@H](NC(=O)[C@H](C)NC(=O)CCCNC(=O)c1ccc(/N=N/c2ccc(N(C)C)cc2)cc1)[C@@H](C)O)C(=O)N[C@@H](CO)C(=O)N[C@@H](CCC(N)=O)C(=O)N[C@@H](CCC(=O)O)C(=O)NCCNc1cccc2c(S(=O)(=O)O)cccc12 [Substrate VI] ({X1-GABA}-ATLNFPISQE-{EDANS}),cleavage by HIV protease (in words),HIV protease [1],not as efficiently as was Substrate I
